Experimental findings from patent US6610677B2, “Pyrazole compounds useful as protein kinase inhibitors” (Vertex Pharmaceuticals Incorporated, priority 2000, dated 2003) are described below.

pKi: −log10 of the molar value.

One experiment has as its target T1, GSK-3β (AA 1-420) (Homo sapiens, UniProt P49841).
T1 construct: GSK-3β (AA 1-420)
In words: Ki determination for the inhibition of GSK-3 (coupled enzyme system). The note with it: 20 μM ATP, 300 μM peptide, 20 nM GSK-3β, 30° C. It counts as biochemical. Put shortly:
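Pyruvate kinase/lactate dehydrogenase-coupled NADH assay with 20 nM GSK-3β (AA 1-420), 20 μM ATP, 300 μM phosphopeptide HSSPHQS(PO3H2)EDEEE in HEPES pH 7.5, 1.5% DMSO, 30 °C. Compound (12 points, 0.002–30 μM) preincubated 10 min before ATP start; Ki derived from 10-min rates versus inhibitor concentration.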

The target in another experiment is T2, Aurora-2 (Homo sapiens, UniProt O14965).
T2 sequence (O14965 1-403): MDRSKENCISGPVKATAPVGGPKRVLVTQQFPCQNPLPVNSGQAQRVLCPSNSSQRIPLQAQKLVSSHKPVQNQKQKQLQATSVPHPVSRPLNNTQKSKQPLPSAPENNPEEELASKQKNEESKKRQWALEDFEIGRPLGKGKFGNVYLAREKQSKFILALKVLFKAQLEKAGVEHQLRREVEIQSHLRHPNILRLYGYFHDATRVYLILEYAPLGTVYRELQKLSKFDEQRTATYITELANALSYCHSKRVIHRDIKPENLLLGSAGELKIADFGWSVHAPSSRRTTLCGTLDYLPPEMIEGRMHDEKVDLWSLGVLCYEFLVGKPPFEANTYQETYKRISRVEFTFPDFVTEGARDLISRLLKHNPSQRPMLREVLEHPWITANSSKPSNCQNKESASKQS
In words: Ki determination for the inhibition of Aurora-2 (coupled enzyme assay). The note with it: 70 nM Aurora-2, peptide LRRASLG, 30° C. The class given is biochemical. On the procedure: Compounds were screened in the following manner for their ability to inhibit Aurora-2 using a standard coupled enzyme assay (Fox et al (1998) Protein Sci 7, 2249).
To an assay stock buffer solution containing 0.1M HEPES 7.5, 10 mM MgCl2, 1 mM DTT, 25 mM NaCl, 2.5 mM phosphoenolpyruvate, […], 30 mg/ml pyruvate kinase, 10 mg/ml lactate dehydrogenase, […], and 800 μM peptide (LRRASLG, American Peptide, Sunnyvale, Calif.) was added a DMSO solution of a compound of the present invention to a final concentration of 30 μM. The resulting mixture was incubated at 30° C. for 10 min. The reaction was initiated by the addition of 10 μL of Aurora-2 stock solution to give a final concentration of 70 nM in the assay. The rates of reaction were obtained by monitoring absorbance at 340 nm over a 5 minute read time at 30° C. using a BioRad Ultramark plate reader (Hercules, Calif.). The Ki values were determined from the rate data as a function of inhibitor concentration.

T1 sequence (P49841 whole entry, the tested form may be a part): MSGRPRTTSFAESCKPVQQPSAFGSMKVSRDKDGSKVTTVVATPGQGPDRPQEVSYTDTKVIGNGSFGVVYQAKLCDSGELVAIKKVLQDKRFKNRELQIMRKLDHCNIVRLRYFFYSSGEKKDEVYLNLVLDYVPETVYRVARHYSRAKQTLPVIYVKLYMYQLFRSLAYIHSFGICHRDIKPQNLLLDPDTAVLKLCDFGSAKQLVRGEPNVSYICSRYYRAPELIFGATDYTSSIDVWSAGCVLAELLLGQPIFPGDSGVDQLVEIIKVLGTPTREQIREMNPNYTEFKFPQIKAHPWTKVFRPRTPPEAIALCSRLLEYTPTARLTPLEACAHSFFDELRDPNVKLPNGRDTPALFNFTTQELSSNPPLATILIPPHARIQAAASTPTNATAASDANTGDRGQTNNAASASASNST

As a reminder, the pKi is the negative decadic logarithm of the Ki, by convention in mol/L. A low value points to a large Ki. Turning to `Fc1ccc2[nH]nc(Nc3nc(-c4ccccc4Cl)nc4ccccc34)c2c1` [II-75, [2-(2-Chloro-phenyl)-quinazolin-4-yl]-(5-fluoro-1H-indazol-3-yl)-amine], the pKi on GSK-3β (AA 1-420) was over 7.00; on Aurora-2, 4.70 to 6.00.

As for `Fc1cc(F)c2[nH]nc(Nc3nc(-c4ccccc4Cl)nc4ccccc34)c2c1` [II-76, [2-(2-Chloro-phenyl)-quinazolin-4-yl]-(5,7-difluoro-1H-indazol-3-yl)-amine], the results for the pKi at GSK-3β (AA 1-420) and at Aurora-2 were over 7.00 and 4.70 to 6.00, respectively.

With `FC(F)(F)c1ccc2[nH]nc(Nc3nc(-c4ccccc4Cl)nc4ccccc34)c2c1` [II-77, [2-(2-Chloro-phenyl)-quinazolin-4-yl]-(5-trifluoromethyl-1H-indazol-3-yl)-amine], the pKi at GSK-3β (AA 1-420) is over 7.00; on Aurora-2 it was 6.00 to 7.00.

Turning to `N#Cc1ccccc1-c1nc(Nc2n[nH]c3ccccc23)c2ccccc2n1` [II-78, [2-(2-cyano-phenyl)-quinazolin-4-yl]-(1H-indazol-3-yl)-amine], the pKi was over 7.00 at GSK-3β (AA 1-420) and 4.70 to 6.00 at Aurora-2.

As for `FC(F)(F)c1ccccc1-c1nc(Nc2n[nH]c3ccc(Br)cc23)c2ccccc2n1` [II-79, (5-Bromo-1H-indazol-3-yl)-[2-(2-trifluoromethyl-phenyl)-quinazolin-4-yl]-amine], the pKi on GSK-3β (AA 1-420) is over 7.00; on Aurora-2, 6.00 to 7.00.

Regarding `FC(F)(F)c1ccccc1-c1nc(Nc2n[nH]c3cc(Cl)ccc23)c2ccccc2n1` [II-80, (6-Chloro-1H-indazol-3-yl)-[2-(2-trifluoromethyl-phenyl)-quinazolin-4-yl]-amine], the pKi at GSK-3β (AA 1-420) was over 7.00; at Aurora-2, 4.70 to 6.00.

For the compound `FC(F)(F)c1ccccc1-c1nc(Nc2n[nH]c3cc(Br)ccc23)c2ccccc2n1` [II-82, (6-Bromo-1H-indazol-3-yl)-[2-(2-trifluoromethyl-phenyl)-quinazolin-4-yl]-amine], the negative logarithm of the Ki (pKi) was over 7.00 at GSK-3β (AA 1-420) and 4.70 to 6.00 on Aurora-2.

In the case of `COc1cccc2c(Nc3n[nH]c4ccccc34)nc(-c3ccccc3C(F)(F)F)nc12` [II-90, (1H-Indazol-3-yl)-[8-methoxy-2-(2-trifluoromethyl-phenyl)-quinazolin-4-yl]-amine], the results for the pKi at GSK-3β (AA 1-420) and at Aurora-2 were over 7.00 and 4.70 to 6.00, respectively.

Regarding `COc1cccc2c(Nc3n[nH]c4ccc(F)cc34)nc(-c3ccccc3C(F)(F)F)nc12` [II-91, (5-Fluoro-1H-indazol-3-yl)-[8-methoxy-2-(2-trifluoromethyl-phenyl)-quinazolin-4-yl]-amine], the pKi on GSK-3β (AA 1-420) was over 7.00; on Aurora-2, 4.70 to 6.00.

`COc1cccc2c(Nc3n[nH]c4c(F)cc(F)cc34)nc(-c3ccccc3C(F)(F)F)nc12` [II-93, (5,7-Difluoro-1H-indazol-3-yl)-[8-methoxy-2-(2-trifluoromethyl-phenyl)-quinazolin-4-yl]-amine]: the pKi is over 7.00 on GSK-3β (AA 1-420) and 6.00 to 7.00 at Aurora-2.

For `Fc1cc(F)c2[nH]nc(Nc3nc(-c4cccnc4Cl)nc4ccccc34)c2c1` [II-94, [2-(2-Chloro-pyridin-3-yl)-quinazolin-4-yl]-(5,7-Difluoro-1H-indazol-3-yl)-amine], the pKi was over 7.00 on GSK-3β (AA 1-420) and 6.00 to 7.00 on Aurora-2.

Turning to `Nc1ccc(-c2nc(Nc3n[nH]c4c(F)cc(F)cc34)c3ccccc3n2)c(Cl)c1` [II-96, [2-(4-Amino-2-chloro-phenyl)-quinazolin-4-yl]-(5,7-Difluoro-1H-indazol-3-yl)-amine], the pKi was over 7.00 at GSK-3β (AA 1-420) and 4.70 to 6.00 at Aurora-2.

Take `FC(F)(F)c1ccccc1-c1nc(Nc2n[nH]c3ncccc23)c2ccccc2n1` [II-99, (1H-Pyrazolo[3,4-b]pyridin-3-yl)-[2-(2-trifluoromethyl-phenyl)-quinazolin-4-yl]-amine]: the values for the pKi at GSK-3β (AA 1-420) and at Aurora-2 were over 7.00 and 6.00 to 7.00, respectively.

As to `Cc1cc(Nc2cc(-c3ccccc3)n[nH]2)nc(-c2ccccc2OC(F)(F)F)n1` [II-103, [6-Methyl-2-(2-trifluoromethoxy-phenyl)-pyrimidin-4-yl]-(5-phenyl-2H-pyrazol-3-yl)-amine], the figures for the pKi at GSK-3β (AA 1-420) and at Aurora-2 were 6.00 to 7.00 and 4.70 to 6.00, respectively.

For the compound `Cc1cc(Nc2cc(-c3ccco3)n[nH]2)nc(-c2ccccc2OC(F)(F)F)n1` [II-104, (5-Furan-2-yl-2H-pyrazol-3-yl)-[6-methyl-2-(2-trifluoromethoxy-phenyl)-pyrimidin-4-yl]-amine], the pKi was 6.00 to 7.00 at GSK-3β (AA 1-420) and 4.70 to 6.00 on Aurora-2.

Consider `CCc1cc(Nc2cc(C)n[nH]2)nc(-c2ccccc2OC(F)(F)F)n1` [II-105, [6-Ethyl-2-(2-trifluoromethoxy-phenyl)-pyrimidin-4-yl]-(5-methyl-2H-pyrazol-3-yl)-amine], for which the values for the pKi on GSK-3β (AA 1-420) and at Aurora-2 were over 7.00 and 6.00 to 7.00, respectively.

Consider `Fc1ccc2[nH]nc(Nc3nc(-c4ccccc4C(F)(F)F)nc4c3CCC4)c2c1` [II-107, (5-Fluoro-1H-indazol-3-yl)-[2-(2-trifluoromethyl-phenyl)-6,7-dihydro-5H-cyclopentapyrimidin-4-yl]-amine], for which the pKi was over 7.00 on GSK-3β (AA 1-420) and 4.70 to 6.00 at Aurora-2.

As for `c1ccc(-c2nc(Nc3n[nH]c4ccccc34)c3ccccc3n2)cc1` [III-1, (1H-Indazol-3-yl)-(2-phenyl-quinazolin-4-yl)-amine], the pKi on GSK-3β (AA 1-420) and on Aurora-2 was 6.00 to 7.00 in each case.

As to `Cc1cc(Nc2nc(-c3ccccc3)nc3c2CCCC3)n[nH]1` [III-7, (5-Methyl-2H-pyrazol-3-yl)-(2-phenyl-5,6,7,8-tetrahydroquinazolin-4-yl)-amine], the pKi on GSK-3β (AA 1-420) and on Aurora-2 was over 7.00 in each case.

For the compound `Cc1cc(Nc2nc(-c3ccncc3)nc3ccccc23)n[nH]1` [III-9, (5-Methyl-2H-pyrazol-3-yl)-(2-pyridin-4-yl-quinazolin-4-yl)-amine], the pKi on GSK-3β (AA 1-420) and at Aurora-2 was over 7.00 in each case.

Regarding `Cc1cc(Nc2nc(-c3ccncc3)nc3cc(Cl)ccc23)[nH]n1` [III-28, (7-Chloro-2-pyridin-4-yl-quinazolin-4-yl)-(5-methyl-2H-pyrazol-3-yl)-amine], the pKi on GSK-3β (AA 1-420) and at Aurora-2 was 6.00 to 7.00 in each case.

For the compound `Cc1cc(Nc2nc(C3CCCCC3)nc3ccccc23)[nH]n1` [III-30, (2-Cyclohexyl-quinazolin-4-yl)-(5-methyl-2H-pyrazol-3-yl)-amine], the negative logarithm of the Ki (pKi) at GSK-3β (AA 1-420) and on Aurora-2 was over 7.00 each time.

Turning to `Clc1ccc(-c2nc(Nc3cc(C4CC4)n[nH]3)c3ccccc3n2)cc1Cl` [III-46, (5-Cyclopropyl-2H-pyrazol-3-yl)-[2-(3,4-dichlorophenyl)-quinazolin-4-yl]-amine], the pKi at GSK-3β (AA 1-420) and on Aurora-2 was over 7.00 in each case.

On to `Cc1cccc(-c2nc(Nc3cc(C)n[nH]3)c3ccccc3n2)c1` [III-50, [2-(3-Methylphenyl)-quinazolin-4-yl]-(5-methyl-2H-pyrazol-3-yl)-amine], for which the results for the pKi on GSK-3β (AA 1-420) and on Aurora-2 were 6.00 to 7.00 and over 7.00, respectively.

As for `Cc1cc(Nc2nc(-c3cc(F)cc(F)c3)nc3ccccc23)[nH]n1` [III-51, [2-(3,5-Difluorophenyl)-quinazolin-4-yl]-(5-methyl-2H-pyrazol-3-yl)-amine], the pKi at GSK-3β (AA 1-420) and on Aurora-2 was over 7.00 each time.

`Cc1cc(Nc2nc(-c3ccc(F)c(Cl)c3)nc3ccccc23)[nH]n1` [III-52, [2-(3-Chloro-4-fluorophenyl)-quinazolin-4-yl]-(5-methyl-2H-pyrazol-3-yl)-amine]: the pKi at GSK-3β (AA 1-420) and on Aurora-2 was over 7.00 in each case.
